Source: patent US11820745B2, “PKC-activating compounds for the treatment of neurodegenerative diseases” (Synaptogenix, Inc., priority 2008, dated 2023)

What was measured:
Aβ = experiment: Degradation of exogenously applied Aβ in SH-SY5Y neuroblastoma cells; type: cell-based, human; conditions: 0.01 to 10 μM; 100 nM exogenous monomeric Aβ-42; 24 h; FIG. 8
Description: Cell culture. Rat hippocampal H19-71GF-IR cells (ATCC, Manassas, Va.) were plated onto poly-L-lysine coated plates and grown at 35° C. in DMEM/10% FCS for several days until about 50% coverage was obtained. The cells were then induced to differentiate into a neuronal phenotype by replacing the medium with 5 ml N2 medium containing 10 ng/ml basic fibroblast growth factor at 39° C. and grown in T-75 flasks at 37° C. Human SH-SY5Y neuroblastoma cells (ATCC) were cultured in 45% F12K/45% MEM/10% FCS. Mouse N2A neuroblastoma cells were cultured in DMEM/10% FCS without glutamine. Rat hippocampal neurons from 18-day-old embryonic
AB Measurement and Cell Viability Assay. Aβ was measured using an Aβ1-42 human fluorimetric ELISA kit (Invitrogen) according to the manufacturer's instructions. Results were measured in a Biotek Synergy HT microplate reader. AlamarBlue and CyQuant NF (Invitrogen) according to the manufacturer's instructions.
To determine whether the reduced levels of AP caused by PKC activators were due to inhibition of Aβ synthesis or activation of Aβ degradation, we applied BR-111 (DHA-CP6) (0.01 to 10 μM) and low concentrations (100 nM) of exogenous monomeric Aβ-42 to cultured SH-SY5Y cells. This concentration of Aβ is too low to produce measurable toxicity or cell death. […]

TACE = TACE assay in rat primary neurons; type: cell-based; conditions: primary neurons from rat hippocampus; FIGS. 9b, c
Description: TACE Assay. TACE was measured by incubating 5 μl cell homogenate, 3 μl buffer (50 mM Tris-HCl 7.4 plus 25 mM NaCl plus 4% glycerol), and 1 of 100 μM TACE substrate IV (Aβz-LAQAVRSSSR-DPa) (Calbiochem) for 20 min at 37° in 1.5-ml polypropylene centrifuge tubes (Jin et al., Anal Biochem. 2002; 302: 269-75). The reaction was stopped by cooling to 4° C. The samples were diluted to 1 ml and the fluorescence was rapidly measured (ex=320 nm, em=420 nm) in a Spex Fluorolog 2 spectrofluorometer.

PKCγ = molecular target: T1, PKCγ (Homo sapiens, UniProt P05129); experiment: Protein kinase C assay, purified PKC isozymes: PKCγ; type: biochemical; conditions: higher concentrations, 50-100 μM; data not shown
T1 construct: purchased Calbiochem
Description: Protein kinase C assay. Rat hippocampal cells were cultured and scraped in 0.2 ml homogenization buffer (20 triM Tris-HCl, pH 7.4, 50 mM NaF, 1 μg/ml leupeptin, and 0.1 mM PMSF) and homogenized by sonication in a Marsonix micro-probe sonicator (5 see, 10W). To measure PKC, 10 ul of cell homogenate or purified. PKC isozyme (purchased from Calbiochem) was incubated for 15 min at 37° C. in the presence of 10 μM histones, 4.89 mM CaCl2, 1.2 μg/μl phosphatidyl-L-serine, 0.18 μg/μl 1,2-dioctanoyl-sn-glycerol, 10 mM MgCl2, 20 mM HEPES (pH 7.4), 0.8 mM EDTA, 4 mM EGTA, 4% glycerol, 8 μg/ml aprotinin, 8 μg/ml leupeptin, and 2 mM benzamidine. 0.5 μCi [^γ-32P]ATP was added and ^32P-phosphoprotein formation was measured by adsorption onto phosphocellulose as described previously. Nelson and Alkon, J. Neurochemistry. 1995; 65: 2350-57. For measurements of activation by BR-101 (DCP-LA) and similar compounds, PKC activity was measured in the absence of diacylglycerol and phosphatidyl serine, as described by Kanno et al., and PKC δ, ε, η, and μ were measured in the absence of added EGTA and CaCl2, as described by Kanno et al., J. Lipid Res. 2006; 47: 1146-50. […]
To determine their PKC isozyme specificity, the new compounds were preincubated with purified PKC for five minutes and the PKC activity was measured radiometrically.

Structure (SMILES) | reduction of cellular levels of Aβ (Aβ) | TACE activity (TACE) | effect on PKCγ (PKCγ)
CCC1CC1CC1CC1CC1CC1CC1CC1CC1CC1CC1CC1CCC(=O)OC (stereo not drawn) [BR-111, methyl-3-(2-((2-((2-((2-((2-((2-ethylcyclopropyl)methyl)cyclopropyl)methyl)cyclopropyl)methyl)-cyclopropyl)methyl)cyclopropyl)methyl)cyclopropyl)propanoate] | 45-63% | small increases | 
CCCCCC1CC1CC1CC1CCCCCCCC(=O)O (stereo not drawn) [BR-101, 8-[2-(2-pentyl-cyclopropylmethyl)-cyclopropyl]-octanoic acid] |  |  | activated
